Test results taken from ChEMBL document CHEMBL3046776, “Antibacterial and antifungal screening of newly synthesized benzimidazole-clubbed chalcone derivatives” (2013).

System: Pseudomonas aeruginosa
Assay: Antibacterial activity against Pseudomonas aeruginosa ATCC 27853 assessed as growth inhibition by broth microdilution method
Assay type: functional

SMILES	MIC
O=C(CSc1nc2ccccc2[nH]1)Nc1ccc(C(=O)/C=C/c2cccc(Cl)c2)cc1	125 µg/mL
O=C(CSc1nc2ccccc2[nH]1)Nc1ccc(C(=O)/C=C/c2ccccc2[N+](=O)[O-])cc1	250 µg/mL
COc1ccc(/C=C/C(=O)c2ccc(NC(=O)CSc3nc4ccccc4[nH]3)cc2)cc1OC	125 µg/mL
O=C(CSc1nc2ccccc2[nH]1)Nc1ccc(C(=O)/C=C/c2ccc([N+](=O)[O-])cc2)cc1	125 µg/mL
O=C(CSc1nc2ccccc2[nH]1)Nc1ccc(C(=O)/C=C/c2ccccc2O)cc1	31.2 µg/mL
O=C(CSc1nc2ccccc2[nH]1)Nc1ccc(C(=O)/C=C/c2ccc(O)cc2)cc1	250 µg/mL
O=C(O)c1cn(C2CC2)c2cc(N3CCNCC3)c(F)cc2c1=O [CIPROFLOXACIN]	125 µg/mL
O=C(CSc1nc2ccccc2[nH]1)Nc1ccc(C(=O)/C=C/c2ccc(Br)cc2)cc1	125 µg/mL
COc1cc(/C=C/C(=O)c2ccc(NC(=O)CSc3nc4ccccc4[nH]3)cc2)cc(OC)c1OC	125 µg/mL
O=C(CSc1nc2ccccc2[nH]1)Nc1ccc(C(=O)/C=C/c2ccccc2)cc1	250 µg/mL
COc1ccc(/C=C/C(=O)c2ccc(NC(=O)CSc3nc4ccccc4[nH]3)cc2)cc1	250 µg/mL
COc1cc(/C=C/C(=O)c2ccc(NC(=O)CSc3nc4ccccc4[nH]3)cc2)ccc1O	250 µg/mL
O=C(CSc1nc2ccccc2[nH]1)Nc1ccc(C(=O)/C=C/c2ccc(Cl)cc2)cc1	125 µg/mL
COc1ccc(OC)c(/C=C/C(=O)c2ccc(NC(=O)CSc3nc4ccccc4[nH]3)cc2)c1	125 µg/mL
CN(C)c1ccc(/C=C/C(=O)c2ccc(NC(=O)CSc3nc4ccccc4[nH]3)cc2)cc1	125 µg/mL
O=C(CSc1nc2ccccc2[nH]1)Nc1ccc(C(=O)/C=C/c2c(O)ccc3ccccc23)cc1	62.5 µg/mL
O=C(CSc1nc2ccccc2[nH]1)Nc1ccc(C(=O)/C=C/c2cccc(Br)c2)cc1	125 µg/mL

System: Escherichia coli
Assay: Antibacterial activity against Escherichia coli ATCC 25922 assessed as growth inhibition by broth microdilution method
Assay type: functional

SMILES	MIC
O=C(CSc1nc2ccccc2[nH]1)Nc1ccc(C(=O)/C=C/c2cccc(Cl)c2)cc1	62.5 µg/mL
O=C(CSc1nc2ccccc2[nH]1)Nc1ccc(C(=O)/C=C/c2ccccc2[N+](=O)[O-])cc1	31.2 µg/mL
COc1ccc(/C=C/C(=O)c2ccc(NC(=O)CSc3nc4ccccc4[nH]3)cc2)cc1OC	31.2 µg/mL
O=C(CSc1nc2ccccc2[nH]1)Nc1ccc(C(=O)/C=C/c2ccc([N+](=O)[O-])cc2)cc1	62.5 µg/mL
O=C(CSc1nc2ccccc2[nH]1)Nc1ccc(C(=O)/C=C/c2ccccc2O)cc1	31.2 µg/mL
O=C(CSc1nc2ccccc2[nH]1)Nc1ccc(C(=O)/C=C/c2ccc(O)cc2)cc1	62.5 µg/mL
O=C(O)c1cn(C2CC2)c2cc(N3CCNCC3)c(F)cc2c1=O [CIPROFLOXACIN]	125 µg/mL
O=C(CSc1nc2ccccc2[nH]1)Nc1ccc(C(=O)/C=C/c2ccc(Br)cc2)cc1	31.2 µg/mL
COc1cc(/C=C/C(=O)c2ccc(NC(=O)CSc3nc4ccccc4[nH]3)cc2)cc(OC)c1OC	31.2 µg/mL
O=C(CSc1nc2ccccc2[nH]1)Nc1ccc(C(=O)/C=C/c2ccccc2)cc1	125 µg/mL
COc1ccc(/C=C/C(=O)c2ccc(NC(=O)CSc3nc4ccccc4[nH]3)cc2)cc1	62.5 µg/mL
COc1cc(/C=C/C(=O)c2ccc(NC(=O)CSc3nc4ccccc4[nH]3)cc2)ccc1O	62.5 µg/mL
O=C(CSc1nc2ccccc2[nH]1)Nc1ccc(C(=O)/C=C/c2ccc(Cl)cc2)cc1	62.5 µg/mL
COc1ccc(OC)c(/C=C/C(=O)c2ccc(NC(=O)CSc3nc4ccccc4[nH]3)cc2)c1	31.2 µg/mL
CN(C)c1ccc(/C=C/C(=O)c2ccc(NC(=O)CSc3nc4ccccc4[nH]3)cc2)cc1	31.2 µg/mL
O=C(CSc1nc2ccccc2[nH]1)Nc1ccc(C(=O)/C=C/c2c(O)ccc3ccccc23)cc1	62.5 µg/mL
O=C(CSc1nc2ccccc2[nH]1)Nc1ccc(C(=O)/C=C/c2cccc(Br)c2)cc1	62.5 µg/mL

System: Enterococcus faecalis
Assay: Antibacterial activity against Enterococcus faecalis ATCC 29212 assessed as growth inhibition by broth microdilution method
Assay type: functional

SMILES	MIC
O=C(CSc1nc2ccccc2[nH]1)Nc1ccc(C(=O)/C=C/c2cccc(Cl)c2)cc1	125 µg/mL
O=C(CSc1nc2ccccc2[nH]1)Nc1ccc(C(=O)/C=C/c2ccccc2[N+](=O)[O-])cc1	250 µg/mL
COc1ccc(/C=C/C(=O)c2ccc(NC(=O)CSc3nc4ccccc4[nH]3)cc2)cc1OC	250 µg/mL
O=C(CSc1nc2ccccc2[nH]1)Nc1ccc(C(=O)/C=C/c2ccc([N+](=O)[O-])cc2)cc1	125 µg/mL
O=C(CSc1nc2ccccc2[nH]1)Nc1ccc(C(=O)/C=C/c2ccccc2O)cc1	125 µg/mL
O=C(CSc1nc2ccccc2[nH]1)Nc1ccc(C(=O)/C=C/c2ccc(O)cc2)cc1	125 µg/mL
O=C(O)c1cn(C2CC2)c2cc(N3CCNCC3)c(F)cc2c1=O [CIPROFLOXACIN]	125 µg/mL
O=C(CSc1nc2ccccc2[nH]1)Nc1ccc(C(=O)/C=C/c2ccc(Br)cc2)cc1	125 µg/mL
COc1cc(/C=C/C(=O)c2ccc(NC(=O)CSc3nc4ccccc4[nH]3)cc2)cc(OC)c1OC	250 µg/mL
O=C(CSc1nc2ccccc2[nH]1)Nc1ccc(C(=O)/C=C/c2ccccc2)cc1	250 µg/mL
COc1ccc(/C=C/C(=O)c2ccc(NC(=O)CSc3nc4ccccc4[nH]3)cc2)cc1	250 µg/mL
COc1cc(/C=C/C(=O)c2ccc(NC(=O)CSc3nc4ccccc4[nH]3)cc2)ccc1O	250 µg/mL
O=C(CSc1nc2ccccc2[nH]1)Nc1ccc(C(=O)/C=C/c2ccc(Cl)cc2)cc1	250 µg/mL
COc1ccc(OC)c(/C=C/C(=O)c2ccc(NC(=O)CSc3nc4ccccc4[nH]3)cc2)c1	125 µg/mL
CN(C)c1ccc(/C=C/C(=O)c2ccc(NC(=O)CSc3nc4ccccc4[nH]3)cc2)cc1	125 µg/mL
O=C(CSc1nc2ccccc2[nH]1)Nc1ccc(C(=O)/C=C/c2c(O)ccc3ccccc23)cc1	250 µg/mL
O=C(CSc1nc2ccccc2[nH]1)Nc1ccc(C(=O)/C=C/c2cccc(Br)c2)cc1	250 µg/mL

System: Staphylococcus aureus
Assay: Antibacterial activity against Staphylococcus aureus ATCC 25923 assessed as growth inhibition by broth microdilution method
Assay type: functional

SMILES	MIC
O=C(CSc1nc2ccccc2[nH]1)Nc1ccc(C(=O)/C=C/c2cccc(Cl)c2)cc1	31.2 µg/mL
O=C(CSc1nc2ccccc2[nH]1)Nc1ccc(C(=O)/C=C/c2ccccc2[N+](=O)[O-])cc1	31.2 µg/mL
COc1ccc(/C=C/C(=O)c2ccc(NC(=O)CSc3nc4ccccc4[nH]3)cc2)cc1OC	62.5 µg/mL
O=C(CSc1nc2ccccc2[nH]1)Nc1ccc(C(=O)/C=C/c2ccc([N+](=O)[O-])cc2)cc1	62.5 µg/mL
O=C(CSc1nc2ccccc2[nH]1)Nc1ccc(C(=O)/C=C/c2ccccc2O)cc1	62.5 µg/mL
O=C(CSc1nc2ccccc2[nH]1)Nc1ccc(C(=O)/C=C/c2ccc(O)cc2)cc1	31.2 µg/mL
O=C(O)c1cn(C2CC2)c2cc(N3CCNCC3)c(F)cc2c1=O [CIPROFLOXACIN]	62.5 µg/mL
O=C(CSc1nc2ccccc2[nH]1)Nc1ccc(C(=O)/C=C/c2ccc(Br)cc2)cc1	125 µg/mL
COc1cc(/C=C/C(=O)c2ccc(NC(=O)CSc3nc4ccccc4[nH]3)cc2)cc(OC)c1OC	31.2 µg/mL
O=C(CSc1nc2ccccc2[nH]1)Nc1ccc(C(=O)/C=C/c2ccccc2)cc1	250 µg/mL
COc1ccc(/C=C/C(=O)c2ccc(NC(=O)CSc3nc4ccccc4[nH]3)cc2)cc1	31.2 µg/mL
COc1cc(/C=C/C(=O)c2ccc(NC(=O)CSc3nc4ccccc4[nH]3)cc2)ccc1O	15.6 µg/mL
O=C(CSc1nc2ccccc2[nH]1)Nc1ccc(C(=O)/C=C/c2ccc(Cl)cc2)cc1	125 µg/mL
COc1ccc(OC)c(/C=C/C(=O)c2ccc(NC(=O)CSc3nc4ccccc4[nH]3)cc2)c1	31.2 µg/mL
CN(C)c1ccc(/C=C/C(=O)c2ccc(NC(=O)CSc3nc4ccccc4[nH]3)cc2)cc1	125 µg/mL
O=C(CSc1nc2ccccc2[nH]1)Nc1ccc(C(=O)/C=C/c2c(O)ccc3ccccc23)cc1	62.5 µg/mL
O=C(CSc1nc2ccccc2[nH]1)Nc1ccc(C(=O)/C=C/c2cccc(Br)c2)cc1	31.2 µg/mL

System: Aspergillus niger
Assay: Antifungal activity against Aspergillus niger ATCC 1015 assessed as growth inhibition by broth microdilution method
Assay type: functional

SMILES	MIC
O=C(CSc1nc2ccccc2[nH]1)Nc1ccc(C(=O)/C=C/c2cccc(Cl)c2)cc1	125 µg/mL
O=C(CSc1nc2ccccc2[nH]1)Nc1ccc(C(=O)/C=C/c2ccccc2[N+](=O)[O-])cc1	250 µg/mL
OC(Cn1cncn1)(Cn1cncn1)c1ccc(F)cc1F [FLUCONAZOLE]	62.5 µg/mL
COc1ccc(/C=C/C(=O)c2ccc(NC(=O)CSc3nc4ccccc4[nH]3)cc2)cc1OC	62.5 µg/mL
O=C(CSc1nc2ccccc2[nH]1)Nc1ccc(C(=O)/C=C/c2ccc([N+](=O)[O-])cc2)cc1	62.5 µg/mL
O=C(CSc1nc2ccccc2[nH]1)Nc1ccc(C(=O)/C=C/c2ccccc2O)cc1	125 µg/mL
O=C(CSc1nc2ccccc2[nH]1)Nc1ccc(C(=O)/C=C/c2ccc(O)cc2)cc1	125 µg/mL
O=C(CSc1nc2ccccc2[nH]1)Nc1ccc(C(=O)/C=C/c2ccc(Br)cc2)cc1	125 µg/mL
COc1cc(/C=C/C(=O)c2ccc(NC(=O)CSc3nc4ccccc4[nH]3)cc2)cc(OC)c1OC	250 µg/mL
O=C(CSc1nc2ccccc2[nH]1)Nc1ccc(C(=O)/C=C/c2ccccc2)cc1	125 µg/mL
COc1ccc(/C=C/C(=O)c2ccc(NC(=O)CSc3nc4ccccc4[nH]3)cc2)cc1	125 µg/mL
COc1cc(/C=C/C(=O)c2ccc(NC(=O)CSc3nc4ccccc4[nH]3)cc2)ccc1O	125 µg/mL
O=C(CSc1nc2ccccc2[nH]1)Nc1ccc(C(=O)/C=C/c2ccc(Cl)cc2)cc1	125 µg/mL
COc1ccc(OC)c(/C=C/C(=O)c2ccc(NC(=O)CSc3nc4ccccc4[nH]3)cc2)c1	125 µg/mL
CN(C)c1ccc(/C=C/C(=O)c2ccc(NC(=O)CSc3nc4ccccc4[nH]3)cc2)cc1	125 µg/mL
O=C(CSc1nc2ccccc2[nH]1)Nc1ccc(C(=O)/C=C/c2c(O)ccc3ccccc23)cc1	62.5 µg/mL
O=C(CSc1nc2ccccc2[nH]1)Nc1ccc(C(=O)/C=C/c2cccc(Br)c2)cc1	250 µg/mL

System: Candida albicans
Assay: Antifungal activity against Candida albicans ATCC 10231 assessed as growth inhibition by broth microdilution method
Assay type: functional

SMILES	MIC
O=C(CSc1nc2ccccc2[nH]1)Nc1ccc(C(=O)/C=C/c2cccc(Cl)c2)cc1	250 µg/mL
O=C(CSc1nc2ccccc2[nH]1)Nc1ccc(C(=O)/C=C/c2ccccc2[N+](=O)[O-])cc1	250 µg/mL
OC(Cn1cncn1)(Cn1cncn1)c1ccc(F)cc1F [FLUCONAZOLE]	125 µg/mL
COc1ccc(/C=C/C(=O)c2ccc(NC(=O)CSc3nc4ccccc4[nH]3)cc2)cc1OC	125 µg/mL
O=C(CSc1nc2ccccc2[nH]1)Nc1ccc(C(=O)/C=C/c2ccc([N+](=O)[O-])cc2)cc1	125 µg/mL
O=C(CSc1nc2ccccc2[nH]1)Nc1ccc(C(=O)/C=C/c2ccccc2O)cc1	62.5 µg/mL
O=C(CSc1nc2ccccc2[nH]1)Nc1ccc(C(=O)/C=C/c2ccc(O)cc2)cc1	125 µg/mL
O=C(CSc1nc2ccccc2[nH]1)Nc1ccc(C(=O)/C=C/c2ccc(Br)cc2)cc1	250 µg/mL
COc1cc(/C=C/C(=O)c2ccc(NC(=O)CSc3nc4ccccc4[nH]3)cc2)cc(OC)c1OC	125 µg/mL
O=C(CSc1nc2ccccc2[nH]1)Nc1ccc(C(=O)/C=C/c2ccccc2)cc1	250 µg/mL
COc1ccc(/C=C/C(=O)c2ccc(NC(=O)CSc3nc4ccccc4[nH]3)cc2)cc1	125 µg/mL
COc1cc(/C=C/C(=O)c2ccc(NC(=O)CSc3nc4ccccc4[nH]3)cc2)ccc1O	62.5 µg/mL
O=C(CSc1nc2ccccc2[nH]1)Nc1ccc(C(=O)/C=C/c2ccc(Cl)cc2)cc1	250 µg/mL
COc1ccc(OC)c(/C=C/C(=O)c2ccc(NC(=O)CSc3nc4ccccc4[nH]3)cc2)c1	250 µg/mL
CN(C)c1ccc(/C=C/C(=O)c2ccc(NC(=O)CSc3nc4ccccc4[nH]3)cc2)cc1	125 µg/mL
O=C(CSc1nc2ccccc2[nH]1)Nc1ccc(C(=O)/C=C/c2c(O)ccc3ccccc23)cc1	125 µg/mL
O=C(CSc1nc2ccccc2[nH]1)Nc1ccc(C(=O)/C=C/c2cccc(Br)c2)cc1	250 µg/mL
